# Results published in patent publication US8580794B2 (AbbVie Inc., priority 2009, dated 2013).
# Molecular target: GST-Bc1-2 (Homo sapiens, UniProt P10415)
# Experiment: Time Resolved-Fluorescence Resonance Energy Transfer (TR-FRET) Bcl-2 binding assay with F-Bak peptide probe
# Settings: GST-Bcl-2 1 nM, F-Bak probe 100 nM, Tb-anti-GST 1 nM; '<' = below limit of detection; read-out: TR-FRET Bcl-2 Binding Ki
# GST-Bc1-2, sequence (P10415 whole entry): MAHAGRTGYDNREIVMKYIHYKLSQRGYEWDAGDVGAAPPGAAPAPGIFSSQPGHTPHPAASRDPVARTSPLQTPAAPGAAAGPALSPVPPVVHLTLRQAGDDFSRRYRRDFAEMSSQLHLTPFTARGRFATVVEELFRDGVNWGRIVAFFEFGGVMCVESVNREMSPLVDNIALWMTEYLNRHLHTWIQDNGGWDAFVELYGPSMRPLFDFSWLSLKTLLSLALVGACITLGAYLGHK
row,SMILES,Ki
1,"CC1(C)CCC(CN2CCN(c3ccc(C(=O)NS(=O)(=O)c4ccc(N[C@H]5CCN(C6CCOC(C)(C)C6)C5)c([N+](=O)[O-])c4)c(Oc4cnc5[nH]ccc5c4)c3)CC2)=C(c2ccc(Cl)cc2)C1 (stereo partly drawn) [Example 133, 4-(4-{[2-(4-chlorophenyl)-4,4-dimethylcyclohex-1-en-1-yl]methyl}piperazin-1-yl)-N-[(4-{[(3S)-1-(2,2-dimethyltetrahydro-2H-pyran-4-yl)pyrrolidin-3-yl]amino}-3-nitrophenyl)sulfonyl]-2-(1H-pyrrolo[2,3-b]pyridin-5-yloxy)benzamide]",< 0.01 nM
2,"CN1CCOC(CNc2ccc(S(=O)(=O)NC(=O)c3ccc(N4CCN(CC5=C(c6ccc(Cl)cc6)CC(C)(C)CC5)CC4)cc3Oc3cnc4[nH]ccc4c3)cc2[N+](=O)[O-])C1 (stereo not drawn) [Example 134, 4-(4-{[2-(4-chlorophenyl)-4,4-dimethylcyclohex-1-en-1-yl]methyl}piperazin-1-yl)-N-[(4-{[(4-methylmorpholin-2-yl)methyl]amino}-3-nitrophenyl)sulfonyl]-2-(1H-pyrrolo[2,3-b]pyridin-5-yloxy)benzamide]",< 0.01 nM
3,"COCCN1CCOC(CNc2ccc(S(=O)(=O)NC(=O)c3ccc(N4CCN(CC5=C(c6ccc(Cl)cc6)CC(C)(C)CC5)CC4)cc3Oc3cnc4[nH]ccc4c3)cc2[N+](=O)[O-])C1 (stereo not drawn) [Example 135, 4-(4-{[2-(4-chlorophenyl)-4,4-dimethylcyclohex-1-en-1-yl]methyl}piperazin-1-yl)-N-{[4-({[4-(2-methoxyethyl)morpholin-2-yl]methyl}amino)-3-nitrophenyl]sulfonyl}-2-(1H-pyrrolo[2,3-b]pyridin-5-yloxy)benzamide]",< 0.01 nM
4,"CC(=O)N1CCOC(CNc2ccc(S(=O)(=O)NC(=O)c3ccc(N4CCN(CC5=C(c6ccc(Cl)cc6)CC(C)(C)CC5)CC4)cc3Oc3cnc4[nH]ccc4c3)cc2[N+](=O)[O-])C1 (stereo not drawn) [Example 136, N-[(4-{[(4-acetylmorpholin-2-yl)methyl]amino}-3-nitrophenyl)sulfonyl]-4-(4-{[2-(4-chlorophenyl)-4,4-dimethylcyclohex-1-en-1-yl]methyl}piperazin-1-yl)-2-(1H-pyrrolo[2,3-b]pyridin-5-yloxy)benzamide]",< 0.01 nM
5,"CC1(C)CCC(CN2CCN(c3ccc(C(=O)NS(=O)(=O)c4ccc(NCC5(F)CCOCC5)c([N+](=O)[O-])c4)c(Oc4cnc5[nH]ccc5c4)c3)CC2)=C(c2ccc(Cl)cc2)C1 [Example 138, 4-(4-{[2-(4-chlorophenyl)-4,4-dimethylcyclohex-1-en-1-yl]methyl}piperazin-1-yl)-N-[(4-{[(4-fluorotetrahydro-2H-pyran-4-yl)methyl]amino}-3-nitrophenyl)sulfonyl]-2-(1H-pyrrolo[2,3-b]pyridin-5-yloxy)benzamide]",< 0.01 nM
6,"CC1(C)CCC(CN2CCN(c3ccc(C(=O)NS(=O)(=O)c4ccc(NC5CCN(C6COC6)CC5)c([N+](=O)[O-])c4)c(Oc4cnc5[nH]ccc5c4)c3)CC2)=C(c2ccc(Cl)cc2)C1 [Example 139, 4-(4-{[2-(4-chlorophenyl)-4,4-dimethylcyclohex-1-en-1-yl]methyl}piperazin-1-yl)-N-({3-nitro-4-[(1-oxetan-3-ylpiperidin-4-yl)amino]phenyl}sulfonyl)-2-(1H-pyrrolo[2,3-b]pyridin-5-yloxy)benzamide]",< 0.01 nM
7,"CC1(C)CCC(CN2CCN(c3ccc(C(=O)NS(=O)(=O)c4ccc(NC5CCN(C6CCC6)CC5)c([N+](=O)[O-])c4)c(Oc4cnc5[nH]ccc5c4)c3)CC2)=C(c2ccc(Cl)cc2)C1 [Example 140, 4-(4-{[2-(4-chlorophenyl)-4,4-dimethylcyclohex-1-en-1-yl]methyl}piperazin-1-yl)-N-({4-[(1-cyclobutylpiperidin-4-yl)amino]-3-nitrophenyl}sulfonyl)-2-(1H-pyrrolo[2,3-b]pyridin-5-yloxy)benzamide]",< 0.01 nM
8,"CC1(C)CCC(CN2CCN(c3ccc(C(=O)NS(=O)(=O)c4ccc(NC5CCN(C6CCOC(C)(C)C6)CC5)c([N+](=O)[O-])c4)c(Oc4cnc5[nH]ccc5c4)c3)CC2)=C(c2ccc(Cl)cc2)C1 (stereo not drawn) [Example 141, 4-(4-{[2-(4-chlorophenyl)-4,4-dimethylcyclohex-1-en-1-yl]methyl}piperazin-1-yl)-N-[(4-{[1-(2,2-dimethyltetrahydro-2H-pyran-4-yl)piperidin-4-yl]amino}-3-nitrophenyl)sulfonyl]-2-(1H-pyrrolo[2,3-b]pyridin-5-yloxy)benzamide]",< 0.01 nM
9,"CC1(C)CCC(CN2CCN(c3ccc(C(=O)NS(=O)(=O)c4ccc(N[C@H]5CCN(C6CC6)C5)c([N+](=O)[O-])c4)c(Oc4cnc5[nH]ccc5c4)c3)CC2)=C(c2ccc(Cl)cc2)C1 [Example 142, 4-(4-{[2-(4-chlorophenyl)-4,4-dimethylcyclohex-1-en-1-yl]methyl}piperazin-1-yl)-N-[(4-{[(3S)-1-cyclopropylpyrrolidin-3-yl]amino}-3-nitrophenyl)sulfonyl]-2-(1H-pyrrolo[2,3-b]pyridin-5-yloxy)benzamide]",0.13 nM
10,"CC1(C)CCC(CN2CCN(c3ccc(C(=O)NS(=O)(=O)c4ccc(NC5CCN(C6CCOC6)CC5)c([N+](=O)[O-])c4)c(Oc4cnc5[nH]ccc5c4)c3)CC2)=C(c2ccc(Cl)cc2)C1 (stereo not drawn) [Example 143, 4-(4-{[2-(4-chlorophenyl)-4,4-dimethylcyclohex-1-en-1-yl]methyl}piperazin-1-yl)-N-({3-nitro-4-[(1-tetrahydrofuran-3-ylpiperidin-4-yl)amino]phenyl}sulfonyl)-2-(1H-pyrrolo[2,3-b]pyridin-5-yloxy)benzamide]",< 0.01 nM
11,"CC1(C)CCC(CN2CCN(c3ccc(C(=O)NS(=O)(=O)c4ccc(N[C@@H]5CCN(C6CC6)C5)c([N+](=O)[O-])c4)c(Oc4cnc5[nH]ccc5c4)c3)CC2)=C(c2ccc(Cl)cc2)C1 [Example 144, 4-(4-{[2-(4-chlorophenyl)-4,4-dimethylcyclohex-1-en-1-yl]methyl}piperazin-1-yl)-N-[(4-{[(3R)-1-cyclopropylpyrrolidin-3-yl]amino}-3-nitrophenyl)sulfonyl]-2-(1H-pyrrolo[2,3-b]pyridin-5-yloxy)benzamide]",< 0.01 nM
12,"CC1(C)CCC(CN2CCN(c3ccc(C(=O)NS(=O)(=O)c4ccc(NC[C@@H]5CCN(C6CCOCC6)C5)c([N+](=O)[O-])c4)c(Oc4cnc5[nH]ccc5c4)c3)CC2)=C(c2ccc(Cl)cc2)C1 [Example 145, 4-(4-{[2-(4-chlorophenyl)-4,4-dimethylcyclohex-1-en-1-yl]methyl}piperazin-1-yl)-N-{[3-nitro-4-({[(3S)-1-tetrahydro-2H-pyran-4-ylpyrrolidin-3-yl]methyl}amino)phenyl]sulfonyl}-2-(1H-pyrrolo[2,3-b]pyridin-5-yloxy)benzamide]",< 0.01 nM
13,"CC(C)(CO)CNc1ccc(S(=O)(=O)NC(=O)c2ccc(N3CCN(CC4=C(c5ccc(Cl)cc5)CC(C)(C)CC4)CC3)cc2Oc2cnc3[nH]ccc3c2)cc1[N+](=O)[O-] [Example 146, 4-(4-{[2-(4-chlorophenyl)-4,4-dimethylcyclohex-1-en-1-yl]methyl}piperazin-1-yl)-N-({4-[(3-hydroxy-2,2-dimethylpropyl)amino]-3-nitrophenyl}sulfonyl)-2-(1H-pyrrolo[2,3-b]pyridin-5-yloxy)benzamide]",< 0.01 nM
14,"CC1(C)CCC(CN2CCN(c3ccc(C(=O)NS(=O)(=O)c4ccc(NCC5CCCN(S(C)(=O)=O)C5)c([N+](=O)[O-])c4)c(Oc4cnc5[nH]ccc5c4)c3)CC2)=C(c2ccc(Cl)cc2)C1 (stereo not drawn) [Example 147, 4-(4-{[2-(4-chlorophenyl)-4,4-dimethylcyclohex-1-en-1-yl]methyl}piperazin-1-yl)-N-{[4-({[1-(methylsulfonyl)piperidin-3-yl]methyl}amino)-3-nitrophenyl]sulfonyl}-2-(1H-pyrrolo[2,3-b]pyridin-5-yloxy)benzamide]",< 0.01 nM
15,"CC(=O)N1CCCC(CNc2ccc(S(=O)(=O)NC(=O)c3ccc(N4CCN(CC5=C(c6ccc(Cl)cc6)CC(C)(C)CC5)CC4)cc3Oc3cnc4[nH]ccc4c3)cc2[N+](=O)[O-])C1 (stereo not drawn) [Example 148, N-[(4-{[(1-acetylpiperidin-3-yl)methyl]amino}-3-nitrophenyl)sulfonyl]-4-(4-{[2-(4-chlorophenyl)-4,4-dimethylcyclohex-1-en-1-yl]methyl}piperazin-1-yl)-2-(1H-pyrrolo[2,3-b]pyridin-5-yloxy)benzamide]",< 0.01 nM
16,"CC1(C)CCC(CN2CCN(c3ccc(C(=O)NS(=O)(=O)c4ccc(N[C@@H]5CCN(S(C)(=O)=O)C5)c([N+](=O)[O-])c4)c(Oc4cnc5[nH]ccc5c4)c3)CC2)=C(c2ccc(Cl)cc2)C1 [Example 149, 4-(4-{[2-(4-chlorophenyl)-4,4-dimethylcyclohex-1-en-1-yl]methyl}piperazin-1-yl)-N-[(4-{[(3R)-1-(methylsulfonyl)pyrrolidin-3-yl]amino}-3-nitrophenyl)sulfonyl]-2-(1H-pyrrolo[2,3-b]pyridin-5-yloxy)benzamide]",< 0.01 nM
17,"CC1(C)CCCC(CN2CCN(c3ccc(C(=O)NS(=O)(=O)c4ccc(NCC5CCOCC5)c([N+](=O)[O-])c4)c(Oc4cnc5[nH]ccc5c4)c3)CC2)=C1c1ccc(Cl)cc1 [Example 150, 4-(4-{[2-(4-chlorophenyl)-3,3-dimethylcyclohex-1-en-1-yl]methyl}piperazin-1-yl)-N-({3-nitro-4-[(tetrahydro-2H-pyran-4-ylmethyl)amino]phenyl}sulfonyl)-2-(1H-pyrrolo[2,3-b]pyridin-5-yloxy)benzamide]",< 0.01 nM
18,"CC1(C)CCC(CN2CCN(c3ccc(C(=O)NS(=O)(=O)c4ccc(NC5CN(C(CF)CF)C5)c([N+](=O)[O-])c4)c(Oc4cnc5[nH]ccc5c4)c3)CC2)=C(c2ccc(Cl)cc2)C1 [Example 151, 4-(4-{[2-(4-chlorophenyl)-4,4-dimethylcyclohex-1-en-1-yl]methyl}piperazin-1-yl)-N-{[4-({1-[2-fluoro-1-(fluoromethyl)ethyl]azetidin-3-yl}amino)-3-nitrophenyl]sulfonyl}-2-(1H-pyrrolo[2,3-b]pyridin-5-yloxy)benzamide]",0.017 nM
